Laboratory results from publication PMC12393591, “Targeting Plasminogen Activator Inhibitor-1 with a Novel Small Molecule Inhibitor Attenuates Lung Fibrosis” (Research Square, 2025).
Read-outs that look alike come from different tables or passages of the source.

Experiments:
[1] = system: lung fibrosis induced by targeted type II alveolar epithelial cell injury; conditions: model of targeted AEC2 injury; previously shown by the authors; cited from earlier work
[2] = system: TGFβ-expressing adenovirus-induced lung fibrosis; set-up: method as in PMID 21852684; conditions: started 4 days after fibrosis initiation; cited from earlier work
[3] = system: idiopathic pulmonary fibrosis; set-up: method as in PMID 40387033; conditions: patients with IPF, phase 3 clinical trial; cited from earlier work
[4] = system: lung fibrosis induced by targeted type II alveolar epithelial cell injury; experiment: Targeted AEC2 injury model (diphtheria toxin in DTR mice; hydroxyproline, weight, histology); assay type: in vivo, DTR-expressing mice (C57BL/6 background); conditions: 60 mg/kg twice daily
[5] = system: bleomycin-induced lung fibrosis; experiment: Single-dose bleomycin lung injury model (hydroxyproline, weight, histology); assay type: in vivo, C57BL/6 mice
Procedure: Weight and age matched mice were anesthetized with isoflurane and received an oropharyngeal instillation of bleomycin (2.5 u/kg in 50 μL of sterile PBS) (Sigma Pharmaceuticals). Control mice received 50 μl of PBS alone. Mice were intermittently weighed through day 21. Hydroxyproline content of the lung was measured as previously described. The left lung was inflation-fixed at 25 cm H2O pressure with 10% neutral-buffered formalin, removed en bloc, further fixed in 10% neutral-buffered formalin overnight, and then paraffin embedded. Five-micron sections were stained using hematoxylin and eosin, and picrosirius red methods.

[6] = system: bleomycin-induced lung fibrosis; set-up: method as in PMID 26859294; conditions: mice following bleomycin injury; cited from earlier work
[7] = molecular target: recombinant active human PAI-1 (Homo sapiens, UniProt P05121); experiment: PAI-1 inhibitory activity against uPA (fluorogenic uPA substrate); assay type: biochemical; conditions: for IC50: read-out: IC50 for inhibiting the activity of PAI-1 against uPA
Procedure: At each drug concentration, parallel control reactions without PAI-1 were assembled. Residual enzymatic activity was determined by addition of an equal volume of 100 μM Z-Gly-Gly-Arg-AMC (Calbiochem) fluorogenic uPA substrate, and the rate of AMC release monitored at 23°C (excitation 370 nm and emission 440 nm). The percent change in PAI-1 activity was determined according to Eq. 1: [(Ei – Pi) / Ei] / [(E0 - P0) / E0], where Ei is the enzyme activity at drug concentration i; Pi is the enzyme activity in the presence of PAI-1 at drug concentration i; E0 is the enzyme activity in the absence of drug; and P0 is the enzyme activity in the presence of PAI-1 but in the absence of drug. Data were then plotted as the residual PAI-1 activity as a percentage of the control PAI-1 activity vs. compound concentration and from these curves the IC50 of each compound was calculated.

[8] = Non-GLP single dose PK, oral gavage; assay type: in vivo, CD-1 mice; conditions: mouse plasma, single dose 30 mg/kg oral gavage, n=3, mean ± SD
Procedure: A non-GLP comparative, single dose PK analysis of MDI-2268 versus MDI-2517 was performed by the University of Michigan Pharmacokinetics Core in CD-1 mice. Briefly, MDI-2268 or MDI-2517 were suspended in 0.5% methylcellulose in water and given orally by gavage at 30 mg/kg (10mL/kg) to 3 mice each. Blood was collected by using heparinized calibrated pipettes at 0.5h, 2h, 4h, and 7h and centrifuged immediately at 15,000g for 10 min. The plasma was collected, which was frozen at −80°C for later LC-MS analysis.

Sequence of recombinant active human PAI-1 (P05121 24-402): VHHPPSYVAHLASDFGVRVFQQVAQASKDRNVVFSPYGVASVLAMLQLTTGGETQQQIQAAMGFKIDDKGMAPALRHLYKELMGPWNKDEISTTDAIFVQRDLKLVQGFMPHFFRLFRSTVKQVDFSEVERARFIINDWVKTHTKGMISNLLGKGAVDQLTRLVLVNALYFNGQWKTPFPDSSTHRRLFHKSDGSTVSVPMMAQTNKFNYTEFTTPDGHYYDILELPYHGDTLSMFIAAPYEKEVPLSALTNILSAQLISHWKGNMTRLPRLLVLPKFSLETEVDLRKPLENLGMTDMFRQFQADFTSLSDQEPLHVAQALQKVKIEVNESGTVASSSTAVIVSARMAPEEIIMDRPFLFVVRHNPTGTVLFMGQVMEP

Cc1ccc(=O)n(-c2ccccc2)c1 [pirfenidone]
severity of pulmonary scarring [1]: attenuate the severity of pulmonary scarring

O=C(COCC(=O)N1CCN(C(c2ccccc2)c2ccccc2)CC1)Nc1ccc(Cl)cc1C(=O)O [TM5275]
lung collagen accumulation [2]: significantly decrease lung collagen accumulation

[O-][S+]1CCc2nc(N3CCC(c4ncc(Cl)cn4)CC3)nc(NC3(CO)CCC3)c21 (stereo not shown) [BI 1015550]
rate of lung function decline [3]: reduced the rate of lung function decline

COC(=O)c1ccc2c(c1)NC(=O)/C2=C(\Nc1ccc(N(C)C(=O)CN2CCN(C)CC2)cc1)c1ccccc1 [Nintedanib]
severity of pulmonary scarring [1]: attenuate the severity of pulmonary scarring | lung hydroxyproline content day 21 ([4]; 10 days from day 11): statistically significantly reduced | weight loss vs vehicle-treated injured group ([4]; 10 days from day 11): mitigated the severity of the weight loss | histopathologic changes (alveolar wall thickening, picrosirius red staining) ([4]; 10 days from day 11, day 21): significantly attenuated | body weight vs vehicle ([5]; 60 mg/kg twice daily from day 11): recovery of body weight | lung collagen content (hydroxyproline) day 21 ([5]; 60 mg/kg twice daily, 10 days from day 11): statistically significantly attenuated | areas of lung consolidation, picrosirius red histopathology ([5]; 60 mg/kg twice daily, 10 days from day 11, day 21): significantly attenuated

CC(C)(C)c1ccc2oc(-c3ccc4cc(OCCCCCC(C(=O)[O-])C(=O)[O-])ccc4c3)nc2c1.[Na+].[Na+] [SK-216]
lung fibrosis [6]: modestly attenuate lung fibrosis

NNC(=O)C(=O)NCc1cccc(OC(F)(F)F)c1 [MDI-2268]
IC50 ([7]; buffer containing 10% human PAI-1-depleted plasma): 67 µM | IC50 ([7]; buffer with 50 nM purified human vitronectin): 75 µM | IC50 ([7]; in buffer alone): 140 µM | fold more effective than Tiplaxtinin at inhibiting PAI-1 ([7]; in the presence of VTN): greater than 7 fold | AUC0-7h obs [8]: 7405 ± 1302 ng·h/mL
